Experimental data reported in patent US6962911B2, “Pyrrolopyrimidinone derivatives, process of preparation and use” (SK Chemicals Co., Ltd., priority 2000, dated 2005).
Counter-ions that a name gives are not always drawn. Like-named read-outs stand apart in the source and are kept apart here.

What was measured:
cGMP PDE V = cGMP PDE V (Homo sapiens, UniProt O76074); test: cyclic nucleotide PDE V activity, PDE SPA assay kit, inhibition study; type: biochemical
Protocol: The cyclic nucleotide PDE V activity was determined using PDE SPA assay kit (Amersham Pharmacia biotech, UK). Each reaction mixture (100 μL total volume) consisted of the column elute containing PDE V (10 μL), [^3H]-cGMP (5 μCi/mL), bovine serum albumin (0.5 mg/mL), and MgCl2 (5 mM) in Tris-HCl buffer (15 mM, pH 7.5). The reactions were initiated by the addition of PDE V and the samples were incubated at 30° C. for 30 min, after which the reaction was stopped by the addition of 50 μL of SPA beads. The reaction tube was then settled for 20 min and was counted on the scintillation counter (Tri-carb 1500, Packard, USA). For the inhibition study of PDE V activity, the sildenafil and test compounds were dissolved in dimethyl sulfoxide (DMSO) and was diluted with distilled water. The final concentration of DMSO was less than 0.2% (v/v).
The following table illustrate the in vitro activities for a range of the compounds of the invention as inhibitors of cGMP PDE V.

[1] = in vitro inhibition of cGMP PDE V, [3H]-cGMP, 30° C., 30 min, read-out: IC50

Structure (SMILES) | IC50 (cGMP PDE V; [1]) [nM] | melting point | IC50 (cGMP PDE V) [nM]
CCCc1cn(C)c2c(=O)[nH]c(-c3cc(S(=O)(=O)N4CCN(Cc5nnn[nH]5)CC4)ccc3OCC)nc12 [Example 116] | 0.28 | 188 °C (dec.) | –
CCCc1cn(C)c2c(=O)[nH]c(-c3cc(S(=O)(=O)N4CCN(CCCCl)CC4)ccc3OCC)nc12 [Example 35, 5-(5-(4-(3-chloropropyl)piperazinylsulfonyl)-2-ethoxyphenyl)-1-methyl-3-n-propyl-1,6-dihydro-7H-pyrrolo[4,3-d]pyrimidin-7-one hydrochloride] | 0.49 | – | –
CCCOc1ccc(S(=O)(=O)N2CCC(C(=O)O)CC2)cc1-c1nc2c(CCC)cn(C)c2c(=O)[nH]1 [Example 105] | 0.71 | 155 to 155.5 °C | –
CCCc1cn(C)c2c(=O)[nH]c(-c3cc(S(=O)(=O)N4CCN(CCCl)CC4)ccc3OCC)nc12 [Example 33, 5-(5-(4-(2-chloroethyl)piperazinylsulfonyl)-2-ethoxyphenyl)-1-methyl-3-n-propyl-1,6-dihydro-7H-pyrrolo[4,3-d]pyrimidin-7-one] | – | 226 °C (dec.) | 2.06
CCCc1cn(C)c2c(=O)[nH]c(-c3cc(S(=O)(=O)N4CCN(CCCF)CC4)ccc3OCC)nc12 [Example 19, 5-(2-ethoxy-5-(4-(3-fluoropropyl)piperazinylsulfonyl)phenyl)-1-methyl-3-n-propyl-1,6-dihydro-7H-pyrrolo[4,3-d]pyrimidin-7-one sulfuric acid] | 0.64 | – | –
CCCOc1ccc(S(=O)(=O)N2CCN(Cc3nnn[nH]3)CC2)cc1-c1nc2c(CCC)cn(C)c2c(=O)[nH]1 [Example 117, 5-(2-n-propoxy-5-(4-(1H-tetrazol-5-ylmethyl)piperazinylsulfonyl)phenyl)-1-methyl-3-n-propyl-1,6-dihydro-7H-pyrrolo[4,3-d]pyrimidin-7-one] | 0.7 | 150 °C (dec.) | –
CCCc1cn(C)c2c(=O)[nH]c(-c3cc(S(=O)(=O)N4CCC(CC(=O)O)CC4)ccc3OCC)nc12 [Example 106, 5-(2-ethoxy-5-(4-(hydroxycarbonylmethyl)piperidinylsulfonyl)phenyl)-1-methyl-3-n-propyl-1,6-dihydro-7H-pyrrolo[4,3-d]pyrimidin-7-one] | 0.27 | 138.5 to 139.5 °C | –
